Data as given in publication PMC12700049, “Peptides From Adzuki Bean and Soybean Improved Insulin‐AKT Signaling‐Related Pathways in Healthy and Insulin‐Resistant States in Human Liver Cells” (Molecular Nutrition & Food Research, 2025).
Marks after values point to notes of the source that are not given here. Peptide text beside a SMILES is read from it.

Assays:
[1] = system: Akt1S1 (AKT1 substrate 1); assay: Insulin receptor phospho antibody microarray: Akt1S1; type: cell-based, human; conditions: VP 9.58 µM, HepG2, healthy state, related to the untreated control, p < 0.05
Method: (§1) Cells treated with VP (9.58 µM) and the untreated cells were tested using immunoassay proteomics. The IC50 value of VP obtained from the luminescence‐based DPP IV inhibition biochemical assay was used as the treatment concentration. Cells were treated as described in Section 2.4. An insulin receptor microarray was performed according to the manufacturer's instructions to test the protein expression of markers in the insulin signaling pathway (Insulin Receptor Phospho Antibody Array, PIG219, Full Moon BioSystem, Sunnyvale, CA, USA). Array signals were visualized with a 20× objective using a Widefield Fluorescence Microscope (Carl Zeiss AG, Germany) and were analyzed as previously described. Student's t‐test was used to assess the differences between the VP treatment and the negative control.

IRS‐1 = assay: Western blot IRS‐1 protein expression in HepG2 cells; type: cell-based, human; conditions: VP 9.58 µM, IPA 7.86 µM, DLDV 1790 µM, 24 h; for IRS‐1 protein expression, increase over untreated controls: healthy state (NG, 5.5 mM glucose), linagliptin 1 nM; for IRS‐1 protein expression, increase over untreated insulin‐resistant cells: insulin‐resistant state (HG, 25 mM glucose with 100 nM insulin)
Method: (§2) HepG2 cells were seeded in either 96‐well plates or 6‐well plates for 24 h. For the healthy cell model (NG), cells were incubated in a medium with a healthy/normal glucose level (5.5 mM glucose), and no stimulation was performed. For the insulin‐resistant cell model (HG), cells were stimulated according to the methods used in a previous publication. In brief, cells were treated for 24 h using 25 mM glucose with 100 nM insulin to stimulate insulin resistance in the HepG2 cells. After seeding or insulin‐resistant stimulation, the cells were treated with selected pure AB7S peptides, selected pure S7S peptides, peptide Asp‐Leu‐Asp‐Val (DLDV; peptide with no DPP IV inhibitory capacity), or 1 nM linagliptin (DPP IV inhibitor) for 24 h. […] Treated cells were used to either perform cell viability assays or were collected, centrifuged, and stored at −80°C until being used.
(§3) Cells treated with VP (9.58 µM), IPA (7.86 µM), DLDV (1790 µM), or linagliptin (1 nM) and untreated cells were used for western blot. In brief, membranes were incubated with conjugated antibodies for human IRS‐1 (sc‐8038 HRP, 1:100) and Akt‐1 (sc‐5298 HRP, 1:100), or ACCα (sc‐137104 HRP, 1:100) overnight at 4°C and washed. Membranes were also incubated with unconjugated primary antibodies for human Glut 2 (07‐1402, 1:1000), then washed and probed with secondary sheep anti‐mouse and donkey anti‐rabbit antibodies (NA931V and NA934V, 1:2500, 2 h, room temperature; Cytiva, Marlborough, MA, USA). GAPDH (sc‐25778 HRP or sc‐47724, 1:4000) was used as the protein loading control and was used to evaluate the relative expression of each protein. Clarity Western ECL Substrate (Bio‐Rad, Hercules, CA, USA) and ImageQuant 800 System (GE Healthcare, Buckinghamshire, UK) were used for imaging.

Akt‐1 = assay: Western blot Akt‐1 protein expression in HepG2 cells; type: cell-based, human; conditions: VP 9.58 µM, IPA 7.86 µM, DLDV 1790 µM, 24 h; for Akt‐1 protein expression, increase over untreated controls: healthy state (NG, 5.5 mM glucose), linagliptin 1 nM; for Akt‐1 protein expression, increase over untreated insulin‐resistant cells: insulin‐resistant state (HG, 25 mM glucose with 100 nM insulin)
Method: as §2, §3

[2] = system: IRS‐1 (Insulin receptor substrate 1); assay: Insulin receptor phospho antibody microarray: IRS‐1; type: cell-based, human; conditions: VP 9.58 µM, HepG2, healthy state, related to the untreated control, p < 0.05
Method: as §1

[3] = system: PP2A‐α (Protein phosphatase 2 alpha); assay: Insulin receptor phospho antibody microarray: PP2A‐α; type: cell-based, human; conditions: VP 9.58 µM, HepG2, healthy state, related to the untreated control, p < 0.05
Method: as §1

[4] = system: mTOR (Mechanistic target of rapamycin); assay: Insulin receptor phospho antibody microarray: mTOR; type: cell-based, human; conditions: VP 9.58 µM, HepG2, healthy state, related to the untreated control, p < 0.05
Method: as §1

IR (Insulin receptor) = assay: Insulin receptor phospho antibody microarray: IR; type: cell-based, human; conditions: VP 9.58 µM, HepG2, healthy state, related to the untreated control, p < 0.05
Method: as §1

Glut 2 [5] = assay: Glut 2 immunocytochemical fluorescence confocal microscopy in HepG2 cells; type: cell-based, human; conditions: VP 9.58 µM, linagliptin 1 nM; for Glut 2 fluorescence emission, higher than the untreated control: healthy state; for Glut 2 fluorescence emission, increase compared to the untreated insulin‐resistant cells: insulin‐resistant state
Method: as §2
The expression of Glut 2 due to the peptide treatment (VP, 9.58 µM) was investigated in HepG2 cells seeded in Ibidi imaging dish (Ibidi, Fitchburg, WI, USA). Cells were treated as described in Section 2.4. The positive control (1 nM linagliptin) was also tested. The immunocytochemical fluorescence confocal microscopy was performed according to a previous procedure. In brief, cells were fixed, permeabilized, blocked, and incubated with Glut 2 antibodies (07‐1402, 1:1000) overnight at 4°C. Cells were then washed twice, incubated with anti‐rabbit IgG secondary antibody (A‐11012; 1:200) for 2 h in the dark, cured with ProLong Gold Antifade Reagent with DAPI (4′,6‐diamidino‐2‐phenylindole), and stored at 4°C until imaging. Cell images were obtained with 63× oil immersion objective (Glut 2: excitation wavelength: 557 nm, emission wavelength: 572 nm; DAPI: excitation wavelength: 353 nm; emission wavelength: 465 nm) using a Carl Zeiss LSM 900 Laser Scanning Microscope (Carl Zeiss AG, Germany).

[6] = system: Shc (SHC‐transforming protein 1); assay: Insulin receptor phospho antibody microarray: Shc; type: cell-based, human; conditions: VP 9.58 µM, HepG2, healthy state, related to the untreated control, p < 0.05
Method: as §1

[7] = system: Akt (AKT serine/threonine kinase); assay: Insulin receptor phospho antibody microarray: Akt; type: cell-based, human; conditions: VP 9.58 µM, HepG2, healthy state, related to the untreated control, p < 0.05
Method: as §1

ACCα = assay: Western blot ACCα protein expression in HepG2 cells; type: cell-based, human; conditions: VP 9.58 µM, IPA 7.86 µM, DLDV 1790 µM, 24 h; for ACCα protein expression, change versus untreated controls: healthy state (NG, 5.5 mM glucose), linagliptin 1 nM; for ACCα protein expression, change versus untreated insulin‐resistant cells: insulin‐resistant state (HG, 25 mM glucose with 100 nM insulin)
Method: as §2, §3

Glut 2 [8] = assay: Western blot Glut 2 protein expression in HepG2 cells; type: cell-based, human; conditions: for Glut 2 protein expression, increase over untreated controls: healthy state (NG, 5.5 mM glucose), linagliptin 1 nM; for Glut 2 protein expression, increase over untreated controls / Glut 2 protein expression, increase over untreated insulin‐resistant cells: VP 9.58 µM, IPA 7.86 µM, DLDV 1790 µM, 24 h; for Glut 2 protein expression, increase over untreated insulin‐resistant cells: insulin‐resistant state (HG, 25 mM glucose with 100 nM insulin)
Method: as §2, §3

[9] = system: AMPK1/AMPK2 (AMP‐activated protein kinase catalytic subunit alpha‐1/2); assay: Insulin receptor phospho antibody microarray: AMPK1/AMPK2; type: cell-based, human; conditions: VP 9.58 µM, HepG2, healthy state, related to the untreated control, p < 0.05
Method: as §1

[10] = biological target: T1, DPP IV activity in HepG2 cells (Homo sapiens, UniProt P27487); assay: Luminescence DPP IV assay in the cell‐based system (HepG2); conditions: 24 h treatment; for IC20: read-out: DPP IV inhibition IC20
T1 construct: dose‐response in vitro experiments conducted using the HepG2 cell culture; host or cells: HepG2
Method: as §2
DPP IV inhibition was measured using the luminescence DPPIV‐GLO Protease assay (G8351, Promega, Madison, WI). In brief, treated cells were incubated with three concentrations of selected pure AB7S peptides or selected pure S7S peptides for 24 h, and linagliptin (1 nM) was used as a positive control. Treated cells were collected and stored at −80°C for no more than one week until being used for the DPPIV‐GLO protease assay. Percent inhibition was calculated, and results were presented as percent inhibition per log (µg peptide/mL). The IC values of the peptides were calculated using Origin Pro software (Version 2021, OriginLab Corporation, Northampton, MA, USA).

[11] = biological target: purified human DPP IV enzyme (Homo sapiens, UniProt P27487); assay: Luminescence DPPIV‐GLO DPP IV inhibition biochemical assay (cell‐free system)
Method: The luminescence DPPIV‐GLO Protease assay (G8351, Promega, Madison, WI) was performed to measure the DPP IV inhibitory capacity of selected AB7S peptides and S7S peptides. Percent inhibition was calculated for each sample. Results were presented as percent inhibition per log (µg peptide/mL). The inhibitory concentration (IC) values of the peptides were calculated using Origin Pro software (Version 2021, OriginLab Corporation, Northampton, MA, USA).

Chain of purified human DPP IV enzyme (P27487 whole entry): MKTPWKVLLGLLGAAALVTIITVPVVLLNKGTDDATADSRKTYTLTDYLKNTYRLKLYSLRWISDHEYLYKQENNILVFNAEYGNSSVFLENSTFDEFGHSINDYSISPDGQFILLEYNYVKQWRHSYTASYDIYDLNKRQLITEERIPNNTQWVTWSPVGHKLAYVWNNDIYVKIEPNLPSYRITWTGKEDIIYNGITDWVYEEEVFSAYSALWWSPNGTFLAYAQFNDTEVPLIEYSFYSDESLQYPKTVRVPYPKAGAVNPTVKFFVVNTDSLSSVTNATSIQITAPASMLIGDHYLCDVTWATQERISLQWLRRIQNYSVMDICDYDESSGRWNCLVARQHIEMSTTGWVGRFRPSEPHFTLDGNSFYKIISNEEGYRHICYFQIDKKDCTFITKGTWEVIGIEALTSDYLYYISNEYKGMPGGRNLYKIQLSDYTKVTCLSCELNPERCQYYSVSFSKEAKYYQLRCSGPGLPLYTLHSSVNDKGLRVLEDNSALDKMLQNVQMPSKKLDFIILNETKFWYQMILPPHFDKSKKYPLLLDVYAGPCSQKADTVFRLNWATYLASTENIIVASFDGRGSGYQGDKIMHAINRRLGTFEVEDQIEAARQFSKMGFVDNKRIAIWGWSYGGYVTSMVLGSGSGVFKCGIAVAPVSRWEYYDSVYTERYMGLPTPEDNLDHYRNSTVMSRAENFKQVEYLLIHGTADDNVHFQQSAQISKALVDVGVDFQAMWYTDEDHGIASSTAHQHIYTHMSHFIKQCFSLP
T1 sequence (P27487 whole entry): as above

`CC(C)[C@H](N)C(=O)N1CCC[C@H]1C(=O)O` [VP, Val‐Pro] (H-Val-Pro-OH; N-terminus and C-terminus assumed) was tested, and the “Akt1S1 Phosphorylated/Non‐phosphorylated ratio” value [1] was 1.3^* Fold Change, the “IRS‐1 protein expression, increase over untreated controls” value (IRS‐1) was greater than 50% and the “IRS‐1 protein expression, increase over untreated insulin‐resistant cells” value (IRS‐1) was greater than 25%. The “Akt‐1 protein expression, increase over untreated controls” value (Akt‐1) was greater than 25%, the “Akt‐1 protein expression, increase over untreated insulin‐resistant cells” value (Akt‐1) was greater than 25% and the “IRS‐1 Phosphorylated/Non‐phosphorylated ratio” value [2] was 0.2^* Fold Change. The “PP2A‐α Phosphorylated/Non‐phosphorylated ratio” value [3] was 2.6^* Fold Change, the “mTOR Phosphorylated/Non‐phosphorylated ratio” value [4] was 3.6^* Fold Change and the “IR Phosphorylated/Non‐phosphorylated ratio” value (IR (Insulin receptor)) was 1.7^* Fold Change. For the same compound, the “Glut 2 fluorescence emission, higher than the untreated control” value (Glut 2 [5]) was 36%, the “Glut 2 fluorescence emission, increase compared to the untreated insulin‐resistant cells” value (Glut 2 [5]) was greater than 14% and the “Shc Phosphorylated/Non‐phosphorylated ratio” value [6] was 3.2^* Fold Change. For the same compound, the “Akt Phosphorylated/Non‐phosphorylated ratio” value [7] was 3.9^* Fold Change, the “ACCα protein expression, change versus untreated controls” value (ACCα) was “no changes” and the “ACCα protein expression, change versus untreated insulin‐resistant cells” value (ACCα) was “not different”. For the same compound, the “Power in increasing Glut 2 protein expression relative to the digested adzuki bean β‐vignin protein” value (Glut 2 [8]; HepG2, comparison based on previous data) was greater than 100 times, the “Glut 2 protein expression, increase over untreated controls” value (Glut 2 [8]) was greater than 25% and the “Glut 2 protein expression, increase over untreated insulin‐resistant cells” value (Glut 2 [8]) was greater than 25%. The “AMPK1/AMPK2 Phosphorylated/Non‐phosphorylated ratio” value [9] was 3.5^* Fold Change, the IC20 [10] was 4.69 µM and the IC20 [11] was 200 µM.
In the case of `CC#CCn1c(N2CCC[C@@H](N)C2)nc2c1c(=O)n(Cc1nc(C)c3ccccc3n1)c(=O)n2C` [linagliptin, Linagliptin, reference compound], the “IRS‐1 protein expression, increase over untreated controls” value (IRS‐1) is reported as greater than 50%, the “Akt‐1 protein expression, increase over untreated controls” value (Akt‐1) is reported as greater than 25% and the “Glut 2 fluorescence emission, higher than the untreated control” value (Glut 2 [5]) is reported as 36%. For the same compound, the “Glut 2 fluorescence emission, increase compared to the untreated insulin‐resistant cells” value (Glut 2 [5]) was greater than 14%, the “ACCα protein expression, change versus untreated controls” value (ACCα) was “no changes” and the “Glut 2 protein expression, increase over untreated controls” value (Glut 2 [8]) was greater than 25%.
Leu‐Leu‐Ser [LLS] was tested, and the IC20 [10] was 7.13 µM and the IC20 [11] was 40.1 µM.
Asp‐Leu‐Asp‐Val [DLDV] was tested, and the “IRS‐1 protein expression, increase over untreated controls” value (IRS‐1) was “no differences”, the “IRS‐1 protein expression, increase over untreated insulin‐resistant cells” value (IRS‐1) was “no differences” and the “Akt‐1 protein expression, increase over untreated controls” value (Akt‐1) was “no differences”. For the same compound, the “Akt‐1 protein expression, increase over untreated insulin‐resistant cells” value (Akt‐1) was “no differences”, the “ACCα protein expression, change versus untreated controls” value (ACCα) was “no differences” and the “ACCα protein expression, change versus untreated insulin‐resistant cells” value (ACCα) was “no differences”. For the same compound, the “Glut 2 protein expression, increase over untreated controls” value (Glut 2 [8]) was “no differences” and the “Glut 2 protein expression, increase over untreated insulin‐resistant cells” value (Glut 2 [8]) was “no differences”.
For `CC[C@H](C)[C@H](N)C(=O)N1CCC[C@H]1C(=O)N[C@@H](C)C(=O)O` [IPA, Ile‐Pro‐Ala] (H-Ile-Pro-Ala-OH), the IC20 [10] was 3.66 µM, the IC50 ([10]; read-out: DPP IV inhibition IC50) was 7.86 µM and the IC20 [11] was 33.1 µM. For the same compound, the IC50 [11] was 70.5 µM.
In the case of Pro‐Met [PM], the IC20 [10] is reported as 5.14 µM and the IC20 [11] is reported as 59.4 µM.
In the case of Phe‐Asn‐Glu [FNE], the “DPP IV inhibition IC5” value [10] is reported as 63.52 µM and the “DPP IV inhibition IC5” value [11] is reported as 5.65 µM.
